# Experimental data published in patent US20210196654A1, “METHOD OF TREATING CONDITIONS” (Clexio Biosciences Ltd., priority 2019, published 2021).
# Where two headings read alike, the source gives them in different places.
# What was measured:
# NMDA receptor = details: Ebert et al (1997); cited from earlier work
# [1] = Single dose crossover study in healthy volunteers, pharmacokinetics; details: both, human, plasma; for AUC(0-inf): AUC0-inf; for AUC(0-inf) / AUC(0-t) / Cmax: geometric mean; for AUC(0-t): AUC0-t; for Cmax: 15 subjects; for half-life: t1/2, geometric mean; for Tmax: median
# From the text: A randomized, open-label 4-way crossover study in 16 healthy male and female subjects was held wherein said subjects were placed in a randomly assigned order and administered esketamine. Each subject was assigned to 1 of 4 treatment sequences according to a randomization code such that 4 subjects were assigned to each treatment sequence. There was a wash-out period of at least 7 days between dosing periods with doses consisting of either oral or intravenous esketamine hydrochloride. The study consisted of an eligibility screening period of 28 days, 4 study periods involving administration of a single dose of esketamine hydrochloride followed by safety assessments with blood sampling for PK purposes up to 72 hours after study drug administration, discharge at 72 hours after study drug administration and a follow-up visit 7-14 days after the last PK blood sample was taken on Day 4.
# [2] = tested on: human peripheral blood lymphocytes (HPBL); details: for structural or numerical (polyploid or endoreduplicated cells) aberrations: non-activated 4 and 20-hour exposure, 60, 120, 238 μg/mL
# Method: The clastogenic potential of esketamine was evaluated in the in vitro mammalian chromosome aberration test using human peripheral blood lymphocytes (HPBL) in both the absence and presence of an induced metabolic activation system (the 9000 g supernatant [S9] microsomal fraction of liver homogenate from rats exposed to Aroclor-1254).
# The study was conducted in 2 phases, with a preliminary toxicity test used to determine the appropriate concentrations for the definitive chromosomal aberration assay. Water was used as a negative (vehicle) control. Toxicity (defined as >45% reduction in MI relative to the vehicle control) was evaluated at 9 concentrations, ranging from 0.0238 to 238 μg/ml, after exposure of HPBL to esketamine for 20 hours in the absence of S9 activation, or for 4 hours, either in the presence or absence of S9 activation, followed by a 16-hour recovery period.
# The definitive chromosome aberration assay evaluated HPBL cells after exposure to esketamine for 20 hours in the absence of S9 activation, or for 4 hours, either in the presence of absence of S9 activation, followed by a 16-hour recovery. Positive controls for chromosomal aberrations in non-activated and S9-activated evaluations, respectively, consisted of mitomycin C (MMC, 0.6 and 0.3 μg/mL for the 4- and 20-hour exposures, respectively) and cyclophosphamide (CP, 2.5, 5, and 7.5 μg/mL). […] Initially, the doses selected for evaluation of chromosomal aberrations were 60, 120, and 238 μg/mL for the non-activated 4- and 20-hour treatment conditions; and 30, 60, and 200 μg/mL for the S9-activated 4-hour treatment condition.
# Sprague Dawley rats = experiment: Repeated dose 28 day toxicity study; format: in vivo, rat; details: 28 days oral gavage
# Method: The objective of the study was to assess the potential toxicity, neurobehavioral effects, and toxicokinetics (TK) of esketamine when administered orally, via gavage, to Sprague Dawley rats for 28 days and to evaluate recovery during a 14-day drug-free period. Fifty male and 50 female rats were randomized into 4 groups (15/sex/Groups 1 and 4; 10/sex/Groups 2 and 3). Esketamine was administered via oral gavage once daily for 28 consecutive days to males at 0 (vehicle control), 6, 10 or 30 mg/kg/day and females at 0 (vehicle control), 2, 10 or 20 mg/kg/day in a dose volume of 10 mL/kg. Animals were observed until euthanized and necropsied on Day 29 (10/sex/group) or 43 (5/sex from Groups 1 and 4). Toxicity was evaluated based on mortality, clinical observations, body weights, food consumption, ophthalmology, motor activity, functional observational battery, clinical pathology (clinical chemistry, hematology, coagulation and urinalysis), organ weights, anatomic (macroscopic or microscopic) pathology. Toxicokinetic animals (3/sex/Group 1; 6/sex/Groups 2, 3, and 4) were similarly dosed and bled on Day 1 and during Week 4 for toxicokinetic analysis.
# [3] = cited from earlier work
# [4] = Oye et al (1992); cited from earlier work
# [5] = iv, 0.3 mg/kg, plasma analyte after single dose esketamine 0.3 mg/kg iv
# [6] = po, 20 mg, plasma analyte after single dose esketamine 20 mg oral solution
# [7] = po, 20 mg, plasma analyte after single dose esketamine 20 mg oral tablet
# [8] = po, 100 mg, plasma analyte after single dose esketamine 100 mg oral tablet
compound,measurement,setting,value
"CN[C@]1(c2ccccc2Cl)CCCCC1=O [esketamine, (2S)-2-(2-Chlorophenyl)-2-(methylamino) cyclohexanone]",affinity for the NMDA receptor relative to (R)-ketamine,NMDA receptor,5 times
same,AUC(0-inf),[1]; [5],0.257 µg·h/mL
same,AUC(0-t),[1]; [5],0.249 µg·h/mL
same,Cmax,[1]; [5],0.0945 µg/mL
same,half-life,[1]; [5],10.2 h
same,Tmax,[1]; [5],1 h
same,AUC(0-inf),[1]; [6],0.0258 µg·h/mL
same,AUC(0-inf),[1]; [7],0.0225 µg·h/mL
same,AUC(0-t),[1]; [6],0.0234 µg·h/mL
same,AUC(0-t),[1]; [7],0.0201 µg·h/mL
same,Cmax,[1]; [6],0.0165 µg/mL
same,Cmax,[1]; [7],0.0119 µg/mL
same,half-life,[1]; [6],2.91 h
same,half-life,[1]; [7],2.84 h
same,Tmax,[1]; [6],0.5 h
same,Tmax,[1]; [7],0.75 h
same,AUC(0-inf),[1]; [8],0.181 µg·h/mL
same,AUC(0-t),[1]; [8],0.173 µg·h/mL
same,Cmax,[1]; [8],0.0653 µg/mL
same,half-life,[1]; [8],7.66 h
same,Tmax,[1]; [8],0.75 h
same,"Cochran-Armitage test, structural aberrations",[2],positive for a dose response
same,"Toxicity (>45% reduction in MI relative to vehicle control), preliminary toxicity test",[2],not observed at any dose
same,induction of structural chromosomal aberrations,[2],positive
same,doses at which cytotoxicity was observed,[2]; human,> 200 µg/mL
same,"cytotoxicity (>45% reduction in mitotic index), chromosomal aberration assay",[2]; non-activated 4- and 20-hour treatment,not observed at any esketamine dose
same,structural or numerical (polyploid or endoreduplicated cells) aberrations,[2],no significant or dose-dependent increases
same,structural or numerical (polyploid or endoreduplicated cells) aberrations,[2]; listed as Esketamine,negative
same,"effects on clinical signs, body weights, food consumption, ophthalmology, motor activity, functional observational battery, clinical pathology or anatomic pathology",Sprague Dawley rats,no esketamine -related effects
same,mortality,"Sprague Dawley rats; males 6, 10, 30, females 2, 10, 20 mg/kg/day",no mortality
same,oral bioavailability,[3]; Fanta et al (2015),8%
same,oral bioavailability,[3]; Peltoniemi et al (2012),11%
same,potency relative to (R)-ketamine in reducing pain perception and in causing auditory and visual disturbances,[4],4 times
